Laboratory results from patent US4736057A, “Cyclohexane derivatives” (Imperial Chemical Industries PLC, priority 1983, dated 1988).

Key:
[1] = system: thromboxane A2 (TXA2); assay: rabbit aortal strip model, test (a), using the TXA2 mimetic U46619 as agonist; assay type: cell-based
Description: (a) The rabbit aortal strip model devised by Piper and Vane (Nature. […]. 223, 29-35) using as agonist the TXA2 mimetic agent known as U46619 (R. L. Jones et alia in "Chemistry, Biochemistry and Pharmacological Activity of Prostanoids", eds. S. M. Roberts and F. Scheinman, at p.211, Pergamon Press, 1979);

[2] = system: hypertensive effect of TXA2 mimetic agent U46619; assay: hypertensive effect of U46619 in anaesthetised rats, test (d); assay type: in vivo, rats (Alderley Park strain); conditions: Rattus norvegicus, iv; intravenously via the jugular vein, anaesthetised male rats, blood pressure at carotid artery, n=3; read-out: ED50 (dose necessary to produce 50% of the maximum hypertensive effect)
Description: (d) Male rats (Alderley Park strain) are anaesthetised with sodium pentobarbital and blood pressure is monitored at the carotid artery. The TXA2 mimetic agent known as U46619 is administered intravenously via the jugular vein and an ED50 (dose necessary to produce 50% of the maximum hypertensive effect) is established (n=3). The ED50 for U46619 is approximately 5 μg/kg. A test compound is then administered either intravenously via the jugular vein or orally via a cannula directly into the stomach and the animal challenged with an ED50 dose of U46619, five minutes after dosing with test compound and then successively every ten minutes until the hypertensive effect of U46619 is no longer blocked.

| Compound | pA2 [1] | ED50 [2] |
| --- | --- | --- |
| O=C(O)CCC/C=C\C[C@@H]1CC[C@H](OCc2ccccc2)C[C@@H]1c1ccccc1 (relative stereo) [Example 16, 5(Z)-7-([1,2,4-cis]-4-benzyloxy-2-phenylcyclohexyl)heptenoic acid] | 5.9 | – |
| CCCCC[C@H](O)/C=C/[C@@H]1[C@@H](C/C=C\CCCC(=O)O)[C@H]2CO[C@@H]1C2 [Example U46619] | – | ~5 µg/kg |
